Experimental data as given in patent publication US20030186817A1, “SUBSTITUTED 2,4-DIAMINO-1,3,5-TRIAZINES, PROCESSES FOR THEIR PREPARATION AND THEIR USE AS HERBICIDES AND PLANT GROWTH REGULATORS” (priority 1998, published 2003).

Columns and labels:
Format in all cases: in vivo
[1] = tested on: Stellaria media, Amaranthus retroflexus, Sinapis avreuse, Avena fatura, Lolium multiflorum and Setaria viridis; test: Post-emergence action against weeds (greenhouse pot test, visual rating); settings: three-leaf stage, application rate of 3.0 kg or less of active substance per hectare, 3 to 4 weeks in greenhouse
Method: Seeds of mono- and dicotyledonous weeds are placed in sandy loam soil in cardboard pots, covered with soil and cultivated in a greenhouse under good growth conditions. Two to three weeks after sowing, the test plants are treated at the three-leaf stage. The novel compounds, formulated as wettable powders or emulsion concentrates, are sprayed in various dosages onto the green parts of the plant at an application rate of from 600 to 8001 of water/ha (converted), and, after the test plants have remained in the greenhouse for 3 to 4 weeks under optimum growth conditions, the action of the preparations is rated visually by comparison with untreated controls. The novel compositions also have good post-emergence herbicidal activity against a broad spectrum of economically important weed grasses and broad-leaved weeds.

[2] = tested on: Cyperus iria and Echinocloa crus-galli; test: Action on weeds in rice (paddy rice conditions, visual rating); settings: dammed height of water 2-3 cm, about three weeks after application; further: test concentration or dose not given here
From the text: Typical rice weeds such as Echinocloa crus galli and Cyperus iria are cultivated in a greenhouse under paddy rice conditions ([…] height of water: 2-3 cm). After the treatment, the test plants are set up in a greenhouse under optimum growth conditions and are maintained in this way under these conditions throughout the test period. About three weeks after application, evaluation is made by visual rating of the damage to the plants by comparison with untreated controls.

[3] = tested on: Stellaria media, Amaranthus retroflexus, Sinapis avreuse, Avena fatura, Lolium multiflorum and Setaria viridis; test: Pre-emergence action against weeds (greenhouse pot test, visual rating); settings: application rate of 3.0 kg or less of active substance per hectare, trial period of 3 to 4 weeks
From the text: Seeds of mono- and dicotyledonous weed plants are placed in sandy loam soil in cardboard pots and covered with soil. The novel compounds, formulated as wettable powders or emulsion concentrates, are then applied to the surface of the soil cover in the form of an aqueous suspension or emulsion at an application rate of from 600 to 800 l of water/ha (converted), in various dosages. After the treatment, the pots are placed in a greenhouse and kept under good growth conditions for the weeds. After the test plants have emerged after a trial period of 3 to 4 weeks, the damage to the plants or the negative effect on emergence is rated visually by comparison with untreated controls. As shown by the test results, the novel compounds have good herbicidal pre-emergence activity against a broad spectrum of weed grasses and broad-leaved weeds.

| SMILES | herbicidal activity post-emergence (rated visually) [1] | herbicidal activity against rice weeds (visual rating of damage) [2] | herbicidal activity pre-emergence (damage to the plants or negative effect on emergence, rated visually) [3] |
| --- | --- | --- | --- |
| Cc1ccccc1C(=O)OCC(C)Nc1nc(N)nc(C(C)C)n1 (stereo not shown) [Example 41] | good and in most cases very good herbicidal activity | very good herbicidal activity | good and in most cases very good herbicidal activity |
| CCC(COC(=O)c1ccccc1C)Nc1nc(N)nc(C(C)C)n1 (stereo not shown) [Example 42] | good and in most cases very good herbicidal activity | very good herbicidal activity | good and in most cases very good herbicidal activity |
| CCC(COC(=O)c1ccccc1OC(C)=O)Nc1nc(N)nc(C(C)C)n1 (stereo not shown) [Example 46] | good and in most cases very good herbicidal activity | very good herbicidal activity | – |
| Cc1cccc(COCC(C)Nc2nc(N)nc(C(C)(C)F)n2)c1 (stereo not shown) [Example 120] | – | very good herbicidal activity | good and in most cases very good herbicidal activity |
| Cc1ccc(COCC(C)Nc2nc(N)nc(C(C)(C)F)n2)cc1 (stereo not shown) [Example 183] | good and in most cases very good herbicidal activity | very good herbicidal activity | good and in most cases very good herbicidal activity |
| CC(COCc1ccccc1)Nc1nc(N)nc(C(C)(C)F)n1 (stereo not shown) [Example 201] | good and in most cases very good herbicidal activity | very good herbicidal activity | good and in most cases very good herbicidal activity |
| CC(CCOc1cc(F)cc(F)c1)Nc1nc(N)nc(C(C)(C)F)n1 (stereo not shown) [Example 207] | good and in most cases very good herbicidal activity | very good herbicidal activity | good and in most cases very good herbicidal activity |
| CC(CCOc1cccc(F)c1)Nc1nc(N)nc(C(C)C)n1 (stereo not shown) [Example 300] | – | very good herbicidal activity | good and in most cases very good herbicidal activity |
| CCC(CCOc1ccccc1)Nc1nc(N)nc(C(F)(F)C(F)F)n1 (stereo not shown) [Example 394] | – | very good herbicidal activity | good and in most cases very good herbicidal activity |
| CC(F)c1nc(N)nc(NCC(=O)NCc2ccccc2)n1 (stereo not shown) [Example 930] | good and in most cases very good herbicidal activity | – | good and in most cases very good herbicidal activity |
| CC(C)c1nc(N)nc(NCC(=O)NCc2ccccc2)n1 [Example 987] | good and in most cases very good herbicidal activity | – | good and in most cases very good herbicidal activity |
| Cc1cccc(CNC(=O)C(C)Nc2nc(N)nc(C(C)C)n2)c1 (stereo not shown) [Example 1005] | good and in most cases very good herbicidal activity | – | good and in most cases very good herbicidal activity |
| Cc1cc(C)cc(CON=CCNc2nc(N)nc(C(C)F)n2)c1 (stereo not shown) [Example 1234] | good and in most cases very good herbicidal activity | – | good and in most cases very good herbicidal activity |
| CCc1nc(N)nc(NCC=NOCc2cc(C)cc(C)c2)n1 [Example 1235] | good and in most cases very good herbicidal activity | – | good and in most cases very good herbicidal activity |
| Cc1cc(C)cc(CON=CCNc2nc(N)nc(C(C)(C)F)n2)c1 [Example 1236] | good and in most cases very good herbicidal activity | – | good and in most cases very good herbicidal activity |
| Cc1cc(C)cc(CON=CCNc2nc(N)nc(C(C)C)n2)c1 [Example 1251] | good and in most cases very good herbicidal activity | – | good and in most cases very good herbicidal activity |
| CC(C)(F)c1nc(N)nc(NCC=NOCc2ccccc2)n1 [Example 1252] | good and in most cases very good herbicidal activity | – | good and in most cases very good herbicidal activity |
| CC(C)c1nc(N)nc(NCC=NOCc2ccccc2)n1 [Example 1253] | good and in most cases very good herbicidal activity | – | good and in most cases very good herbicidal activity |
| CC(F)c1nc(N)nc(NCC=NOCc2ccccc2)n1 (stereo not shown) [Example 1307] | good and in most cases very good herbicidal activity | – | good and in most cases very good herbicidal activity |
| CCC(COCCOc1ccccc1)Nc1nc(N)nc(C(C)(C)F)n1 (stereo not shown) [Example 1344] | good and in most cases very good herbicidal activity | – | good and in most cases very good herbicidal activity |
| CCC(COCCOc1ccccc1)Nc1nc(N)nc(C(C)C)n1 (stereo not shown) [Example 1345] | good and in most cases very good herbicidal activity | – | good and in most cases very good herbicidal activity |
| CCC(COCCOc1ccccc1)Nc1nc(N)nc(C(C)F)n1 (stereo not shown) [Example 1346] | good and in most cases very good herbicidal activity | – | good and in most cases very good herbicidal activity |
| CCC(COCCOc1cccc(Cl)c1)Nc1nc(N)nc(C(C)(C)F)n1 (stereo not shown) [Example 1364] | good and in most cases very good herbicidal activity | – | good and in most cases very good herbicidal activity |
| CC(COCCOc1ccccc1)Nc1nc(N)nc(C(C)(C)F)n1 (stereo not shown) [Example 1385] | good and in most cases very good herbicidal activity | – | good and in most cases very good herbicidal activity |
| CCCc1nc(N)nc(NC(C)COCCOc2ccccc2)n1 (stereo not shown) [Example 1404] | good and in most cases very good herbicidal activity | – | good and in most cases very good herbicidal activity |
